Where “and” joins values, the source holds several entries; their conditions need not be identical. Identical values can stand only once.
Test system: 463943-066-T-J2-PDC tumor spheroids with HUVEC/MSC, viability
Test: Anticancer human tumor 463943-066-T-J2-PDC patient-derived colon adenocarcinoma cell line growth inhibition [TAK]
Conditions: for viability, T/C: stronger effect = lower value
Text: Combinatorial screen of targeted agents with TAK-243 and ipatasertib in multi-cell type tumor spheroids
A high-throughput screen of multi-cell type tumor spheroids was designed to identify active combinations of targeted small molecules and TAK-243 or ipatasertib. Complex spheroids include a stromal component modeled by human endothelial cells (HUVEC) and fibroblasts modeled by human mesenchymal stem cells (MSCs). The concentration ranges selected for each drug and investigational agent were based upon clinically achievable concentrations if the clinical Cmax of the agent was known.
Compounds. The drugs and investigational agents: TAK-243 (785004), ipatasertib (767898), everolimus (733504), selumetinib (741078), bortezomib (756655), trametinib (758246), ixazomib (758254), vemurafenib (761431), dabrafenib (764134), sapanisertib (764658), alpelisib (765974), and copanlisib (816437), were obtained from the National Cancer Institute (NCI) Developmental Therapeutics Program Chemical Repository. The FDA-approved anticancer drug set is available from the NCI Developmental Therapeutics Program. […] The stock solutions were prepared in dimethyl sulfoxide (DMSO, Sigma-Aldrich, St. Louis, MO, cat. D2650) at 800-fold the tested concentration and stored at -70 degrees C prior to their use. All drugs and investigational agents were tested over a range starting from a high concentration at or near the clinical Cmax and decreasing in half-log increments. If the clinical Cmax for an agent had not been determined, the highest concentration tested was 10 microM.
NCI60 Cell Culture. NCI60 cell lines were obtained from the NCI Developmental Therapeutics Program Tumor Repository. For each lot of cells, the Repository performed Applied Biosystems AmpFLSTR Identifiler testing with PCR amplification to confirm consistency with the published Identifier STR profile for each cell line. Cells were kept in continuous culture for no more than 20 passages. The optimal seeding densities for each of the cell lines at each time point assessed were determined prior to performing the concentration response studies. Briefly, the NCI60 human tumor lines were grown as monolayers in RPMI 1640 medium supplemented with 10% FBS and 2 mmol/L L-glutamine.
An additional 2 lines were from the NCI60 cell line panel including melanomas, MALME-3M and SK-MEL-2. Pooled donor human umbilical vein endothelial cells (HUVEC, Lonza, cat. CC-2519) and human mesenchymal stem cells (hMSC, Lonza, cat. PT-2501) were purchased from Lonza (Walkersville, MD).
PDMR cell lines were grown in complete medium (DC medium): Dulbecco's modified Eagle's medium (DMEM)/F12 supplemented with 5% fetal bovine serum (FBS), 2 mM L-glutamine, 100 U/mL penicillin and 100 µg/ml streptomycin, 0.4 µg/ml hydrocortisone, 10 ng/ml epidermal growth factor (EGF) recombinant human protein, 24 µg/mL adenine, and 0.1 mg/mL primocin. During culture from frozen stock vials, PDMR cells were cultured in the same medium containing 10 µM Y-27632 (see Table 3). The PDCs were cultured in complete DMEM/F12 media without 10 microM Y-27632 dihydrochloride for at least two passages prior to the screen. The pooled donor HUVEC and hMSC were cultured in endothelial cell growth medium 2 (PromoCell, Heidelberg, Germany, cat. C-22011) and mesenchymal stem cell growth medium 2 (PromoCell, cat. C-28009), respectively. For all experiments, HUVEC and hMSC were used at passages </=5.
For the pre-screen, cell seeding densities were determined from a titration spanning the range from 5,000 to 313 cells per well. The mct-spheroids including 60% malignant cells, 25% HUVEC and 15% MSC dispensed as a mixture into U-bottom Ultra-Low Attachment 384-well plates (Corning, NY)
High-throughput Drug Combination Screening.
Prior to their inoculation into 384-well plates, malignant cells, HUVEC, and hMSC were removed from T flasks using TrypLE express (Thermo Fisher Scientific, cat. 12605036) and harvested by centrifugation for 5 min at 233 x g. […]

[1] = curve of first compound, second compound 0.3 µM
[2] = curve of first compound, second compound 0.949 µM
[3] = curve of first compound, second compound 3 µM
[4] = curve of first compound, second compound 9.49 µM
[5] = curve of first compound, second compound 30 µM
[6] = second compound 0.3 µM, first compound 0.00316 µM
[7] = second compound 0.3 µM, first compound 0.01 µM
[8] = second compound 0.3 µM, first compound 0.0316 µM
[9] = second compound 0.3 µM, first compound 0.1 µM
[10] = second compound 0.949 µM, first compound 0.00316 µM
[11] = second compound 0.949 µM, first compound 0.01 µM
[12] = second compound 0.949 µM, first compound 0.0316 µM
[13] = second compound 0.949 µM, first compound 0.1 µM
[14] = second compound 3 µM, first compound 0.00316 µM
[15] = second compound 3 µM, first compound 0.01 µM
[16] = second compound 3 µM, first compound 0.0316 µM
[17] = second compound 3 µM, first compound 0.1 µM
[18] = second compound 9.49 µM, first compound 0.00316 µM
[19] = second compound 9.49 µM, first compound 0.01 µM
[20] = second compound 9.49 µM, first compound 0.0316 µM
[21] = second compound 9.49 µM, first compound 0.1 µM
[22] = second compound 30 µM, first compound 0.00316 µM
[23] = second compound 30 µM, first compound 0.01 µM
[24] = second compound 30 µM, first compound 0.0316 µM
[25] = second compound 30 µM, first compound 0.1 µM
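Also: spheroids exposed to drugs for seven days.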
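For viability, T/C in this document: 100% = DMSO vehicle control wells.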

SMILES | IC50 [1] | IC50 [2] | IC50 [3] | IC50 [4] | IC50 [5] | viability, T/C [6] | viability, T/C [7] | viability, T/C [8] | viability, T/C [9] | viability, T/C [10] | viability, T/C [11] | viability, T/C [12] | viability, T/C [13] | viability, T/C [14] | viability, T/C [15] | viability, T/C [16] | viability, T/C [17] | viability, T/C [18] | viability, T/C [19] | viability, T/C [20] | further results
CC(C)n1nc(-c2ccc3oc(N)nc3c2)c2c(N)ncnc21 + CC(C)NCC(C(=O)N1CCN(c2ncnc3c2C(C)CC3O)CC1)c1ccc(Cl)cc1 | > 100 nM | > 100 nM | > 100 nM | > 100 nM | > 100 nM | 105% | 95.2% | 79.6% | 74.1% | 81.8% | 78.6% | 82.7% | 78.5% | 93.4% | 89.8% | 85.3% | 78.2% | 91.4% | 88.3% | 82.6% | viability, T/C (second compound 0.3 µM, first compound 0.000316 µM): 112%; viability, T/C (second compound 0.3 µM, first compound 0.001 µM): 102%; viability, T/C (second compound 0.949 µM, first compound 0.000316 µM): 100%; viability, T/C (second compound 0.949 µM, first compound 0.001 µM): 97.2%; viability, T/C (second compound 3 µM, first compound 0.000316 µM): 95.2%; viability, T/C (second compound 3 µM, first compound 0.001 µM): 106%; viability, T/C (second compound 9.49 µM, first compound 0.000316 µM): 103%; viability, T/C (second compound 9.49 µM, first compound 0.001 µM): 91.6%; viability, T/C [21]: 74.1%; viability, T/C (second compound 30 µM, first compound 0.000316 µM): 86.1%; viability, T/C (second compound 30 µM, first compound 0.001 µM): 106%; viability, T/C [22]: 83.2%; viability, T/C [23]: 89%; viability, T/C [24]: 82%; viability, T/C [25]: 74.6%
CC(C)CC(NC(=O)CNC(=O)c1cc(Cl)ccc1Cl)B1OC(=O)CC(CC(=O)O)(C(=O)O)O1 (configuration not stated) |  |  |  |  |  |  |  |  |  |  |  |  |  |  |  |  |  |  |  |  | viability, T/C (compound 0.000316 µM): 109% and 95.1%; viability, T/C (compound 0.001 µM): 108% and 96.2%; viability, T/C (compound 0.00316 µM): 122% and 97.5%; viability, T/C (compound 0.01 µM): 100% and 95.3%; viability, T/C (compound 0.0316 µM): 82.2% and 73.6%; viability, T/C (compound 0.1 µM): 81.4% and 74.8%; IC50 (curve of compound): > 100 nM
COc1c(OCCCN2CCOCC2)ccc2c3n(c(=NC(=O)c4cnc(N)nc4)nc12)CCN3 + CC(C)NCC(C(=O)N1CCN(c2ncnc3c2C(C)CC3O)CC1)c1ccc(Cl)cc1 | > 1000 nM | > 1000 nM | > 1000 nM | > 1000 nM | > 1000 nM | 91.4% | 91.3% | 85% | 77.1% | 88.6% | 93.1% | 75.1% | 78.2% | 93.7% | 86.8% | 83.5% | 79.8% | 81.3% | 85.5% | 86.4% | viability, T/C (second compound 0.3 µM, first compound 0.316 µM): 70.3%; viability, T/C (second compound 0.3 µM, first compound 1 µM): 66.5%; viability, T/C (second compound 0.949 µM, first compound 0.316 µM): 77.2%; viability, T/C (second compound 0.949 µM, first compound 1 µM): 68.1%; viability, T/C (second compound 3 µM, first compound 0.316 µM): 79.8%; viability, T/C (second compound 3 µM, first compound 1 µM): 77%; viability, T/C [21]: 73.6%; viability, T/C (second compound 9.49 µM, first compound 0.316 µM): 75.6%; viability, T/C (second compound 9.49 µM, first compound 1 µM): 71.2%; viability, T/C [22]: 85.6%; viability, T/C [23]: 87.5%; viability, T/C [24]: 74.6%; viability, T/C [25]: 73.9%; viability, T/C (second compound 30 µM, first compound 0.316 µM): 66.5%; viability, T/C (second compound 30 µM, first compound 1 µM): 71.2%
